Article PMC7321301, “Characteristics of New Peptides GQLGEHGGAGMG, GEHGGAGMGGGQFQPV, EQGFLPGPEESGR, RLARAGLAQ, YGNPVGGVGH, and GNPVGGVGHGTTGT as Inhibitors of Enzymes Involved in Metabolic Syndrome and Antimicrobial Potential” (Molecules, 2020)
No end group written: not given here.

Columns and labels:
[1] = tested on: HECa10 cells; experiment: MTT test; type: cell-based, murine; conditions: 24-h incubation, 0.1–100 µg/mL
Description: (§1) The study was conducted according to the procedure described by Rokicki et al.. HECa10 cells after 80–90% confluence were trypsinized (3 min, 37 °C), centrifuged (300 g, 5 min), counted, and plated in 96-well plates at a concentration of 1 × 10^4 cells/well. Then, 24 h after seeding, cells were washed with phosphate-buffered saline (PBS) solution and culture medium (Dulbecco’s Modified Eagle Medium (DMEM) + 10% fetal bovine serum (FBS) + antibiotics, all from Life Technologies, Warsaw, Poland) was added with test factors in concentrations: 0.1; 1; 5; 10; 50; 100 µg/mL). Then, 24 h after addition of the compounds, proliferation tests (MTT, NR, LDH) were performed. The color intensity was determined using a Fluostar Omega microplate reader. Results are presented as the mean ± SD of 3 independent experiments (n = 12).
Briefly, the cells were seeded in a 96-well culture plate at a concentration of 1 × 10^4 cells/well. Then, 24 h after seeding, the cells were rinsed twice with PBS (Life Technologies, Warsaw, Poland) and resuspended in fresh growth medium. Peptide fractions were added at concentrations of 0 (control), 0.1, 1, 5, 10, 50, and 100 µg/mL. After 24 h incubation with the proteins, the assessment of cell metabolic activity based on MTT tests was performed (MTT kit, Sigma Aldrich, Poznań, Poland). The absorbance was measured at 570 nm with a FLUOstar Omega reader (BMG Labtech GmbH, Ortenberg, Germany). The results are presented as the percentage of the control values (mean ± SD). Each assay was performed in triplicate (n = 18).

[2] = biological target: T1, pancreatic lipase (Homo sapiens, UniProt P16233); experiment: Pancreatic lipase inhibitory activity (pNPA) and kinetics; type: biochemical; conditions: mean ± SD, triplicate
T1 sequence (P16233 17-465): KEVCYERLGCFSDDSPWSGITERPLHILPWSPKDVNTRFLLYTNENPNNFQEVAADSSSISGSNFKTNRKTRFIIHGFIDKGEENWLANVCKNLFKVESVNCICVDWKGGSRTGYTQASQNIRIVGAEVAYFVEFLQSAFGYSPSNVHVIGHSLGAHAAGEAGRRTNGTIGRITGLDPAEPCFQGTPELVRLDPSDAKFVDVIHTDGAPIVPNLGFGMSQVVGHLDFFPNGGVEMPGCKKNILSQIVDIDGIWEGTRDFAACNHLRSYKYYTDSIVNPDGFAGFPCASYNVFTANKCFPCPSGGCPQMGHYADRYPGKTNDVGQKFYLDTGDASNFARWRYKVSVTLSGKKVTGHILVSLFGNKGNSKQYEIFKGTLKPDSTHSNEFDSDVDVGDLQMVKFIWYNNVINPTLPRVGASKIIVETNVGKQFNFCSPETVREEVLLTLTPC
Description: For all inhibitory activity, IC50 was calculated. The IC50 value defined as the concentration of the extract inhibiting 50% of the enzyme activity was determined by measuring the enzyme inhibitory activity and peptide contents in each sample. The IC50 value was calculated from the plotted graph of the inhibition activity for the five different peptide concentrations.
Lipase inhibitory activity was determined with the method described by Jakubczyk et al.. The final volume of the reaction mixture was 150 μL (2 μL of the enzyme, 5 μL of the sample, 142 μL of 100 mM potassium phosphate buffer, pH 7.5, and 1 μL of a 100 mM p-nitrophenyl acetate (pNPA) solution in dimethyl sulfoxide (DMSO). Changes in absorbance at […] were measured using BioTek Microplate Readers.
Substrate solutions (5.0, 10.0, 15.0, and 20.0 mM) were prepared and used to determine the Michaelis constant (Km), the inhibition constant (Ki), and the maximum velocity (Vmax) of enzymes. The kinetic parameters were evaluated by Lineweaver–Burk’s method. The reaction conditions were the same as in the enzyme inhibitory activity assay.

[3] = tested on: HECa10 cells; experiment: LDH test; type: cell-based, murine; conditions: 24-h incubation, 0.1–100 µg/mL
Description: as §1
The cells were seeded in a 96-well culture plate at a concentration of 1 × 10^4 cells/well. Then, 24 h after seeding, the cells were rinsed twice with PBS (Life Technologies, Poland) and resuspended in fresh growth medium. Peptide fractions were added at concentrations of 0 (control), 0.1, 1, 5, 10, 50, and 100 µg/mL. After 24 h incubation with the proteins, activity of released from cells lactate dehydrogenase was assessed (Pierce Ldh Cytotoxicity Assay Kit, Life Technologies, Warsaw Poland).The absorption was measured at a wavelength of 540 nm with the background cutoff at 490 nm (FLUOstar Omega, BMG Labtech GmbH, Ortenberg, Germany). The results are presented as the percentage of the control values (mean ± SD). Each assay was performed in triplicate (n = 18).

[4] = biological target: T2, α-amylase from hog pancreas (Sus scrofa, UniProt P00690); experiment: α-amylase inhibitory activity (starch, DNS) and kinetics; type: biochemical
T2 construct: α-amylase from hog pancreas (50 U/mg); from tissue; host or cells: hog pancreas
T2 sequence (P00690 16-511): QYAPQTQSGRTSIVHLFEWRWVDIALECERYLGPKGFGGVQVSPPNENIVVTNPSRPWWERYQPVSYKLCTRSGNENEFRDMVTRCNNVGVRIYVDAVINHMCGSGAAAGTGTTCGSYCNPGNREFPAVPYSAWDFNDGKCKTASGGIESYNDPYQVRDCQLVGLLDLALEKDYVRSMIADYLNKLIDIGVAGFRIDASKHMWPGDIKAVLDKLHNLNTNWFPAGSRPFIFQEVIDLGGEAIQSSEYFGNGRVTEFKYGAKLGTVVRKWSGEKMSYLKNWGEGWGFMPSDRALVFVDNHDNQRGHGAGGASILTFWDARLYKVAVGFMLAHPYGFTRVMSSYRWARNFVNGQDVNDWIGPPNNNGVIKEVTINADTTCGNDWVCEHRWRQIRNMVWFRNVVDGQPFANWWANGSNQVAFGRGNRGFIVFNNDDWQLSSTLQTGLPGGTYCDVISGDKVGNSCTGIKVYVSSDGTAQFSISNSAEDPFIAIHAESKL
Description: For all inhibitory activity, IC50 was calculated. […] The IC50 value was calculated from the plotted graph of the inhibition activity for the five different peptide concentrations. […] To measure the α-amylase inhibitory activity, a mixture of 25 μL of α-amylase solution and 25 μL of sample was first incubated at 40 °C for 5 min. Then, 50 μL of 1% (w/v) soluble starch (dissolved in 100 mM phosphate buffer containing 6 mM NaCl, pH 7) was added. After 10 min, the reaction was stopped by adding 100 μL of 3,5-dinitrosalicylic acid (DNS) and heating for 10 min. Then, the mixture was made up to 300 μL with double distilled water. After that, the absorbance at 540 nm was measured using BioTek Microplate Readers (EpochTM 2 BioTek, Bad Friedrichshall, Germany). The final results were compared with the activity of the same amount of enzyme without the inhibitor. All assays were carried out in triplicate. For IC50 value determination, the inhibitory activity for […] of samples was investigated. […] The kinetic parameters were evaluated by Lineweaver-Burk's method. The reaction conditions were the same as in the enzyme inhibitory activity assay.

Sequence	MTT test, HECa10 cell count compared to control [1]	IC50 [2]	LDH activity test, HECa10 cells compared to control [3]	IC50 [4]
EQGFLPGPEESGR [ER-13, EQGFLPGPEESGR]	no statistically significant differences	54.8 µM	no statistically significant differences	51.1 µM
YGNPVGGVGH [YH-10, YGNPVGGVGH]	declined statistically significantly	107 µM	no statistically significant differences	80.3 µM
GQLGEHGGAGMG [GG-12, GQLGEHGGAGMG]	no statistically significant differences	56.6 µM	no statistically significant differences	53 µM
GNPVGGVGHGTTGT [GT-14, GNPVGGVGHGTTGT]	no statistically significant differences	86.1 µM	no statistically significant differences	50 µM
GEHGGAGMGGGQFQPV [GV-16, GEHGGAGMGGGQFQPV]	no statistically significant differences	41.9 µM	no statistically significant differences	44.6 µM
RLARAGLAQ [RQ-9, RLARAGLAQ]	no statistically significant differences	102 µM	no statistically significant differences	69.9 µM
